Measured values: patent EP1328811B1, “HCV MOSAIC ANTIGEN COMPOSITION” (MedMira Inc., priority 2000, dated 2005)

System: anti-HCV antibodies
Test: Immunofiltration dotting assay of individual peptide-carrier conjugates (epitope mapping, Example 4)
Assay type: binding, human
Conditions: for reactivity with HCV positive samples / reactivity with positive HCV samples: HCV positive specimens n=10; for reactivity with positive HCV samples: peptide conjugates, independently of the carrier used (BSA, HSA, KLH), peptide-carrier mass ratio 0.5; for reactivity with negative HCV samples: peptide-carrier conjugates, HCV negative specimens n=10
Excerpt: Several versions of antibody capture assay formats are available which differ mainly according to the type of solid supports employed and the detection technology used to determine the presence of immunological complexes formed by antigen-antibody recognition and binding. A commercially available immunofiltration dotting assay procedure (MedMira Inc., Halifax, N.S.) was used to test for immunoreactivity of the peptide-carrier conjugates based on colloidal gold detection using a nitrocellulose membrane as a solid support and is described below.
The HCV positive/negative specimens used to evaluate the mosaic antigen composition were provided by Dr. Spencer Lee (Director of Virology/Immunology, Microbiology Division, Department of Pathology and Laboratory Medicine) of the Queen Elizabeth II Health Sciences Center (Halifax, Nova Scotia). All specimens were tested with the Abbott's HCV test using the Axsym system platform. The Riba-II (Chiron) immunoblot assay was used as a confirmation test.
The maleimide-activated carrier molecules (KLH, BSA and HSA) were purchased from Pierce (Rockford, IL) and conjugated with cysteine containing peptides using a peptide-carrier mass ratio of 0.5 except mentioned otherwise.
Typically, the conjugates were passively adsorbed at a concentration of 1 mg/ml (bicarbonate buffer, 50 mM, pH 9.6) by applying one microliter of peptide-carrier conjugate on the nitrocellulose membrane. The antigen dotted membrane was air-dried. Before the test, the membrane was primed with 3 drops of washing buffer (Tris/phosphate/sodium chloride, pH 9.6 containing 0.25% Tween®20). The tests were performed as follows.
One drop of specimen serum was added to the membrane and after complete absorption of the sample, the membrane was washed with 4 drops of washing buffer. Four drops of protein A/colloidal gold solution (concentration corresponding to an optical density of 2 at 520 nm) was added to the membrane and the membrane was washed with 3 more drops of washing solution. The results were recorded visually within 5 minutes after completion of the test.
The identification of major linear epitopes was carried out using selected peptides corresponding to various regions of the HCV polyprotein and panels of well-characterized HCV positive and negative human sera. Additionally, a comparison of different carrier components was made based on a sensitivity/specificity assessment of various peptide-carrier conjugates.
Peptides were individually conjugated to three different carriers (BSA, HSA and KLH) and adsorbed passively on a nitrocellulose membrane support. Tests were performed by immunofiltration dotting assay format using a,commercially available flow-through assay platform (MedMira Inc., Halifax, N.S.).

Sequence	reactivity with HCV positive samples (peptide conjugated with BSA)	reactivity with HCV positive samples (peptide conjugated with HSA)	reactivity with HCV positive samples (peptide conjugated with KLH)	reactivity with positive HCV samples	reactivity with negative HCV samples
ATRKTSERSQPRGRRQPI [MDL-5, HCV core region antigenic peptide]	reactive with most HCV positive samples	unreactive	reactive with most HCV positive samples	–	–
GQIVGGVYLLPRRGP [MDL-3, HCV core region antigenic peptide]	–	–	–	more consistent reactivity	No significant reactivity
GPRLGVRATRKTSERSQP [MDL-4, HCV core region antigenic peptide]	marginally reactive or unreactive	marginally reactive or unreactive	reactive with most HCV positive samples	–	–
PKARQPEGRAWAQPG [MDL-6]	reactive with most HCV positive samples	reactive with most HCV positive samples	poorly reactive	–	–
KTKRNTNRRPQDVKF [MDL-2, HCV core region antigenic peptide]	–	–	–	more consistent reactivity	No significant reactivity
MSTNPKPQRKTKRNTNRR [MDL-1, HCV core region antigenic peptide]	–	–	–	more consistent reactivity	No significant reactivity
